From patent US12617779B2, “Self degradation-type CDK9 inhibitor prodrug and liposome encapsulating same” (Sumitomo Pharma Co., Ltd., priority 2021, dated 2026)

What was measured:
[1] = Evaluation of conversion rate to active form in buffer solution (Experimental Example 1); assay type: physicochemical
Experimental: For Examples 1 to 16 and Comparative Examples 1 to 14, the attrition rate of the test compound and the conversion rate of the test compound to Alvocidib in a buffer solution were calculated by the following method.
Examples 1 to 16 and Comparative Examples 1 to 14 were each left in buffer solutions adjusted to pH 5.0, 5.5, 6.0, 6.5, 7.0 and 7.4, respectively, at a concentration of 25 umol/L at 37° C. After 0, 0.5, 1, 2 and 3 hours, the residual rates of the compounds of Examples […] and the production rate of Alvocidib were determined by HPLC.
The buffer solutions used at each pH are as follows. • pH 5.0: 50 mM citrate buffer solution (pH 5.0) • pH 5.5: 50 mM citrate buffer solution (pH 5.5) • pH 6.0: 50 mM phosphate buffer solution (pH 6.0) • pH 6.5: 50 mM phosphate buffer solution (pH 6.5) • pH 7.0: 50 mM phosphate buffer solution (pH 7.0) • pH 7.4: 50 mM phosphate buffer solution (pH 7.4)
(§1) The measurement conditions for HPLC are as follows.

[2] = Stability evaluation of solution formulation (Experimental Example 2); assay type: physicochemical; conditions: for Production rate of Alvocidib / Residual rate: solution formulation
Experimental: For Example 1, Example 2, Example 5, Example 6, Comparative Example 13 and Comparative Example 14, the attrition rate of the test compound and the conversion rate of the test compound to Alvocidib in a solution formulation were calculated by the following method.
Example 1, Example 2, Example 5, Example 6, Comparative Example 13 and Comparative Example 14 were each added to buffer solutions adjusted to pH 3.0, 4.0 and 5.0, respectively, at a concentration of 0.1 mg/mL, and left at 5° C. After 0, 1, 2 and 4 weeks, the residual rates of the compounds of Example 1, Example 2, […], Comparative Example 13 and Comparative Example 14 and the production rate of Alvocidib were determined by HPLC.
The buffer solutions used at each pH are as follows. • pH 3.0: 5 mM tartrate buffer solution/10% sucrose solution (pH 3.0) • pH 4.0: 5 mM tartrate buffer solution/10% sucrose solution (pH 4.0) • pH 5.0: 5 mM tartrate buffer solution/10% sucrose solution (pH 5.0)
as §1
• column: Acquity UPLC BEH C18, 1.7 um, 50×2.1 mm • column temperature: 40° C. • mobile phase: • A: water containing 0.1% trifluoroacetic acid • B: acetonitrile • A/B (min): • 80/20(0)→75/25(3)→0/100(3.5)→0/100(4)→80/20(4.01)→80/20(5) • flow rate: 0.8 mL/min • detection: ultraviolet visible detector, measurement wavelength 254 nm • injection: 3 μL

With `CNCCN(C)C(=O)Oc1cc(O)c2c(=O)cc(-c3ccccc3Cl)oc2c1[C@H]1CCN(C)C[C@H]1O` [Comparative Example 14, reference compound] the “Production rate of Alvocidib” value ([1]; pH5.0, 0 hr) was 1.2%, the Residual rate ([1]; pH5.0, 0 hr) was 97.3% and the “Stability in buffer solution at pH 5” value ([1]; pH 5, 37° C., up to 2 or 3 hours) was “unstable”. The “Conversion to Alvocidib at pH 5 within 3 hours” value ([1]; pH 5, 37° C., within 3 hours) was “mostly converted to Alvocidib”, the “Production rate of Alvocidib” value ([1]; pH5.0, 0.5 hr) was 17.9% and the Residual rate ([1]; pH5.0, 0.5 hr) was 80.3%. The “Production rate of Alvocidib” value ([1]; pH5.0, 1 hr) was 31.1%, the Residual rate ([1]; pH5.0, 1 hr) was 66.8% and the “Production rate of Alvocidib” value ([1]; pH5.0, 2 hr) was 53.7%. The Residual rate ([1]; pH5.0, 2 hr) was 45.6%, the “Production rate of Alvocidib” value ([1]; pH5.0, 3 hr) was 68.5% and the Residual rate ([1]; pH5.0, 3 hr) was 30.7%. For the same molecule, the “Production rate of Alvocidib” value ([1]; pH5.5, 0 hr) was 1.4%, the Residual rate ([1]; pH5.5, 0 hr) was 97.2% and the “Production rate of Alvocidib” value ([1]; pH5.5, 0.5 hr) was 44.2%. For the same molecule, the Residual rate ([1]; pH5.5, 0.5 hr) was 53.8%, the “Production rate of Alvocidib” value ([1]; pH5.5, 1 hr) was 67.2% and the Residual rate ([1]; pH5.5, 1 hr) was 30.3%. The “Production rate of Alvocidib” value ([1]; pH5.5, 2 hr) was 88.5%, the Residual rate ([1]; pH5.5, 2 hr) was 8.7% and the “Production rate of Alvocidib” value ([1]; pH5.5, 3 hr) was 93.9%. For the same molecule, the Residual rate ([1]; pH5.5, 3 hr) was 2.9%, the “Production rate of Alvocidib” value ([1]; pH6.0, 0 hr) was 1.9% and the Residual rate ([1]; pH6.0, 0 hr) was 96.7%. For the same molecule, the “Production rate of Alvocidib” value ([1]; pH6.0, 0.5 hr) was 88.1%, the Residual rate ([1]; pH6.0, 0.5 hr) was 9.0% and the “Production rate of Alvocidib” value ([1]; pH6.0, 1 hr) was 95.7%. For the same molecule, the Residual rate ([1]; pH6.0, 1 hr) was 1.2%, the “Production rate of Alvocidib” value ([1]; pH6.0, 2 hr) was 97.0% and the Residual rate ([1]; pH6.0, 2 hr) was 0.0%. For the same molecule, the “Production rate of Alvocidib” value ([1]; pH6.0, 3 hr) was 97.1%, the Residual rate ([1]; pH6.0, 3 hr) was 0.0% and the “Production rate of Alvocidib” value ([1]; pH6.5, 0 hr) was 3.2%. The Residual rate ([1]; pH6.5, 0 hr) was 95.4%, the “Production rate of Alvocidib” value ([1]; pH6.5, 0.5 hr) was 97.0% and the Residual rate ([1]; pH6.5, 0.5 hr) was 0.0%. For the same molecule, the “Production rate of Alvocidib” value ([1]; pH6.5, 1 hr) was 96.7%, the Residual rate ([1]; pH6.5, 1 hr) was 0.0% and the “Production rate of Alvocidib” value ([1]; pH6.5, 2 hr) was 98.2%. For the same molecule, the Residual rate ([1]; pH6.5, 2 hr) was 0.0%, the “Production rate of Alvocidib” value ([1]; pH6.5, 3 hr) was 97.6% and the Residual rate ([1]; pH6.5, 3 hr) was 0.0%. The “Production rate of Alvocidib” value ([1]; pH7.0, 0 hr) was 6.9%, the Residual rate ([1]; pH7.0, 0 hr) was 91.7% and the “Production rate of Alvocidib” value ([1]; pH7.0, 0.5 hr) was 96.8%. The Residual rate ([1]; pH7.0, 0.5 hr) was 0.0%, the “Production rate of Alvocidib” value ([1]; pH7.0, 1 hr) was 96.8% and the Residual rate ([1]; pH7.0, 1 hr) was 0.0%. The “Production rate of Alvocidib” value ([1]; pH7.0, 2 hr) was 96.7%, the Residual rate ([1]; pH7.0, 2 hr) was 0.0% and the “Production rate of Alvocidib” value ([1]; pH7.0, 3 hr) was 96.7%. For the same molecule, the Residual rate ([1]; pH7.0, 3 hr) was 0.0%, the “Production rate of Alvocidib” value ([1]; pH7.4, 0 hr) was 14.2% and the Residual rate ([1]; pH7.4, 0 hr) was 84.4%. For the same molecule, the “Production rate of Alvocidib” value ([1]; pH7.4, 0.5 hr) was 97.3%, the Residual rate ([1]; pH7.4, 0.5 hr) was 0.0% and the “Production rate of Alvocidib” value ([1]; pH7.4, 1 hr) was 97.2%. The Residual rate ([1]; pH7.4, 1 hr) was 0.0%, the “Production rate of Alvocidib” value ([1]; pH7.4, 2 hr) was 97.2% and the Residual rate ([1]; pH7.4, 2 hr) was 0.0%. For the same molecule, the “Production rate of Alvocidib” value ([1]; pH7.4, 3 hr) was 97.2%, the Residual rate ([1]; pH7.4, 3 hr) was 0.0% and the “Stability / conversion to Alvocidib in solution formulation at pH 3” value ([2]; pH 3, 5° C., up to 4 weeks) was “gradually converted to Alvocidib”. The “Conversion to Alvocidib in solution formulation at pH 5 after 4 weeks” value ([2]; pH 5, 5° C., after 4 weeks) was “almost completely converted to Alvocidib”, the “Production rate of Alvocidib” value ([2]; pH3.0, 0 week) was 1.3% and the Residual rate ([2]; pH3.0, 0 week) was 98.5%. The “Production rate of Alvocidib” value ([2]; pH3.0, 1 week) was 2.7%, the Residual rate ([2]; pH3.0, 1 week) was 97.1% and the “Production rate of Alvocidib” value ([2]; pH3.0, 2 week) was 3.9%. The Residual rate ([2]; pH3.0, 2 week) was 95.8%, the “Production rate of Alvocidib” value ([2]; pH3.0, 4 week) was 6.1% and the Residual rate ([2]; pH3.0, 4 week) was 93.6%. For the same molecule, the “Production rate of Alvocidib” value ([2]; pH4.0, 0 week) was 2.2%, the Residual rate ([2]; pH4.0, 0 week) was 97.5% and the “Production rate of Alvocidib” value ([2]; pH4.0, 1 week) was 12.8%. The Residual rate ([2]; pH4.0, 1 week) was 86.7%, the “Production rate of Alvocidib” value ([2]; pH4.0, 2 week) was 21.1% and the Residual rate ([2]; pH4.0, 2 week) was 78.3%. The “Production rate of Alvocidib” value ([2]; pH4.0, 4 week) was 36.2%, the Residual rate ([2]; pH4.0, 4 week) was 63.0% and the “Production rate of Alvocidib” value ([2]; pH5.0, 0 week) was 13.2%. The Residual rate ([2]; pH5.0, 0 week) was 86.4%, the “Production rate of Alvocidib” value ([2]; pH5.0, 1 week) was 72.5% and the Residual rate ([2]; pH5.0, 1 week) was 25.7%. The “Production rate of Alvocidib” value ([2]; pH5.0, 2 week) was 90.1%, the Residual rate ([2]; pH5.0, 2 week) was 8.1% and the “Production rate of Alvocidib” value ([2]; pH5.0, 4 week) was 97.1%. The Residual rate ([2]; pH5.0, 4 week) was 1.1%.
